Results as given in patent US20130071854A1, “METHODS FOR THE IDENTIFICATION AND CHARACTERIZATION OF HDAC INTERACTING COMPOUNDS” (priority 2009, published 2013).
Where two headings read alike, the source gives them in different places.

Legend:
[1] = molecular target: T1, non-HDAC targets (e.g. BZW2, ISOC2, aldehyde dehydrogenases) (Homo sapiens, UniProt Q96AB3); assay: Chemoproteomic binding profiling, K562 cell extract, SAHA/ITF2357 probe matrix (Kd app); conditions: protein ISOC2; selected HDACi off-targets
T1 construct: endogenous in cells; host or cells: K562 whole cell extract
T1 sequence (Q96AB3 1-205): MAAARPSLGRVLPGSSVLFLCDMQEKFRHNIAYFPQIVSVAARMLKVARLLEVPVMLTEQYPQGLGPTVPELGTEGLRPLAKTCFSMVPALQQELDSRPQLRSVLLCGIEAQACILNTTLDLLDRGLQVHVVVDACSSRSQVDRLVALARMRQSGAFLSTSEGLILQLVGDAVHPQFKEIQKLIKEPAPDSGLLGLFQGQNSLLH

[2] = molecular target: T2, non-HDAC targets (e.g. BZW2, ISOC2, aldehyde dehydrogenases) (Homo sapiens, UniProt P16152); assay: as above; conditions: protein CBR1; selected HDACi off-targets
T2 construct: Kd^app CBR1; other: protein CBR1; selected HDACi off-targets
T2 sequence (P16152 1-277): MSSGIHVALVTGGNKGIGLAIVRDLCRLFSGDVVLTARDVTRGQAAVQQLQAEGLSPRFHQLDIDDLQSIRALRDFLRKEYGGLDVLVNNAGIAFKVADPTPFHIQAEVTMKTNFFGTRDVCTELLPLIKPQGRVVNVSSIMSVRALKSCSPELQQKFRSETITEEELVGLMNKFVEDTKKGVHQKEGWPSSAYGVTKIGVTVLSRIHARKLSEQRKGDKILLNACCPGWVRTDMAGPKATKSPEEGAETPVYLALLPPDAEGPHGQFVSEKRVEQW

[3] = molecular target: T3, non-HDAC targets (e.g. BZW2, ISOC2, aldehyde dehydrogenases) (Homo sapiens, UniProt O94788); assay: as above; conditions: protein ALDH1A2; selected HDACi off-targets
T3 construct: endogenous in cells; host or cells: K562 whole cell extract
T3 sequence (O94788 1-518): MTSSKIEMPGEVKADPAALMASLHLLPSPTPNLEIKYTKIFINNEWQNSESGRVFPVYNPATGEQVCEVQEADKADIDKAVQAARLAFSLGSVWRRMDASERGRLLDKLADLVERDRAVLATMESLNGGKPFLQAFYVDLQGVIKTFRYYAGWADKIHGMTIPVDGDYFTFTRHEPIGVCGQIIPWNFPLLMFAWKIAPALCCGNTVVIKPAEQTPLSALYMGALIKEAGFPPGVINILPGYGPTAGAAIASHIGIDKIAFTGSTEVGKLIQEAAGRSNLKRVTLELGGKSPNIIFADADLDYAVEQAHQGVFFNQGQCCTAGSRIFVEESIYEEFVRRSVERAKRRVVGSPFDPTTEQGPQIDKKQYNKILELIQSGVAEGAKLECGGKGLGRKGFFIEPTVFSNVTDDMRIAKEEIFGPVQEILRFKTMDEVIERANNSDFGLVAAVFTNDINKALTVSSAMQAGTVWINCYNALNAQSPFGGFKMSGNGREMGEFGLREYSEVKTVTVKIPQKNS

[4] = molecular target: T4, non-HDAC targets (e.g. BZW2, ISOC2, aldehyde dehydrogenases) (Homo sapiens, UniProt Q08209); assay: as above; conditions: protein PPP3CA; selected HDACi off-targets
T4 construct: Kd^app PPP3CA; other: protein PPP3CA; selected HDACi off-targets

[5] = molecular target: T5, non-HDAC targets (e.g. BZW2, ISOC2, aldehyde dehydrogenases) (Homo sapiens, UniProt Q9Y6E2); assay: as above; conditions: protein BZW2; selected HDACi off-targets
T5 construct: endogenous in cells; host or cells: K562 whole cell extract
T5 sequence (Q9Y6E2 1-419): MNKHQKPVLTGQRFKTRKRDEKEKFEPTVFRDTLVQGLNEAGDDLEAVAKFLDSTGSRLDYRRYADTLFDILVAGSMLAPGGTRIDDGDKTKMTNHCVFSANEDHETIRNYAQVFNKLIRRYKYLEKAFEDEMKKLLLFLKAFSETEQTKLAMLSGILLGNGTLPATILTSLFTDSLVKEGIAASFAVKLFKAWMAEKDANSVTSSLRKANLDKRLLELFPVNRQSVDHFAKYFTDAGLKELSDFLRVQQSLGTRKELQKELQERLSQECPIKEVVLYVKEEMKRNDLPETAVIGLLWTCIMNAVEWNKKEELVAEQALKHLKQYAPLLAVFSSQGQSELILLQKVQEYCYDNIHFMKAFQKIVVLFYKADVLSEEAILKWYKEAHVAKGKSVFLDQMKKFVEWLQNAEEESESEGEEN

NuRD complex = assay: as above; design: species or system human
MIER2 = assay: Chemoproteomic binding profiling, K562 cell extract, SAHA/ITF2357 probe matrix (Kd app), ELSA (ELM-SANT) domain protein; design: species or system human; conditions: ELSA (ELM-SANT) domain proteins
RERE = assay: as above; design: species or system human; conditions: protein RERE; ELSA (ELM-SANT) domain proteins
HDAC10 = molecular target: T6, HDAC10 (Homo sapiens, UniProt Q969S8); assay: Chemoproteomic binding profiling, K562 cell extract, SAHA/ITF2357 probe matrix (Kd app); conditions: protein HDAC10; class II HDAC; read-out: Kd^app HDAC10
T6 construct: used to probe endogenous HDACs in K562 whole cell extracts; endogenous in cells
T6 sequence (Q969S8 1-669): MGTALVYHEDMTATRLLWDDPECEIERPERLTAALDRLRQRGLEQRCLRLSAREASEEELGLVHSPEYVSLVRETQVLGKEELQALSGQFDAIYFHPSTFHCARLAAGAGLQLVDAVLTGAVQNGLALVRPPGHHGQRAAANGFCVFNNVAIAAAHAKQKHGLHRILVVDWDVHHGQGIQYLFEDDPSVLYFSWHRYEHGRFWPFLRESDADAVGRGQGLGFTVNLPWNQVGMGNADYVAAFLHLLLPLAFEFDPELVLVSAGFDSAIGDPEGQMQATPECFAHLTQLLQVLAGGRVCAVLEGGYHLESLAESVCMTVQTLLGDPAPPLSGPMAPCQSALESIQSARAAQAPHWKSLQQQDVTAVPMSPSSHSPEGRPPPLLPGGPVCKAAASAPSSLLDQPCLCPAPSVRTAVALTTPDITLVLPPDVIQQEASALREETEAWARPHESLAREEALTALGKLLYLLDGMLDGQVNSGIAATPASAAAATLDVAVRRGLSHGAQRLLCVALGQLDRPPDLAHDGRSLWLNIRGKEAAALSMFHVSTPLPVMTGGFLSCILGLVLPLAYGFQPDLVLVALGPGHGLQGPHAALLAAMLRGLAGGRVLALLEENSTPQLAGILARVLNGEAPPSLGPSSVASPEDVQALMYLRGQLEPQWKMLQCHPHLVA

EHMT2 = assay: Chemoproteomic binding profiling, K562 cell extract, SAHA/ITF2357 probe matrix (Kd app), ELSA (ELM-SANT) domain proteins group; design: species or system human; conditions: protein EHMT2
CoREST complex = assay: Chemoproteomic binding profiling, K562 cell extract, SAHA/ITF2357 probe matrix (Kd app); design: species or system human
MIER3 = assay: Chemoproteomic binding profiling, K562 cell extract, SAHA/ITF2357 probe matrix (Kd app), ELSA (ELM-SANT) domain protein; design: species or system human; conditions: ELSA (ELM-SANT) domain proteins
MIER1 = assay: as above; design: species or system human; conditions: ELSA (ELM-SANT) domain proteins
acetylated tubulin = assay: Cell-based tubulin acetylation assay (immunofluorescence, western blotting); design: species or system human; conditions: K562 and HeLa cells; immunofluorescence and western blotting
[6] = tested on: acetylated histones H3 and H4; assay: Cell-based histone acetylation assay (immunofluorescence, western blotting); design: species or system human; conditions: K562 and HeLa cells

`Nc1ccccc1NC(=O)c1ccc(CNc2nccc(-c3cccnc3)n2)cc1` [Mocetinostat] was tested, and the Kd [1] was > 271 µM, the Kd [2] was 109 µM and the Kd [3] was 230 µM. For the same compound, the Kd [4] was > 271 µM, the Kd [5] was > 271 µM and the Kd (NuRD complex; read-out: Kd^app CHD4) was 170 µM. For the same compound, the Kd (NuRD complex; read-out: Kd^app GATAD2A) was 183 µM, the Kd (NuRD complex; read-out: Kd^app GATAD2B) was 106 µM and the Kd (NuRD complex; read-out: Kd^app MBD2) was 217 µM. For the same compound, the Kd (NuRD complex; read-out: Kd^app MBD3) was 119 µM, the Kd (NuRD complex; read-out: Kd^app MTA1) was 136 µM and the Kd (NuRD complex; read-out: Kd^app MTA3) was 87 µM. For the same compound, the Kd (MIER2) was 99 µM, the Kd (RERE) was > 271 µM and the Kd (HDAC10) was > 271 µM. The Kd (EHMT2) was > 271 µM, the Kd (CoREST complex; read-out: Kd^app GSE1) was 50 µM and the Kd (CoREST complex; read-out: Kd^app HMG20A) was 53 µM. It also gave a Kd (CoREST complex; read-out: Kd^app HMG20B) of 62 µM, a Kd (CoREST complex; read-out: Kd^app PHF21A) of 189 µM and a Kd (CoREST complex; read-out: Kd^app RCOR1) of 48 µM. The Kd (CoREST complex; read-out: Kd^app RCOR2) was 103 µM, the Kd (CoREST complex; read-out: Kd^app RCOR3) was 60 µM and the Kd (CoREST complex; read-out: Kd^app ZMYM2) was 124 µM. The Kd (CoREST complex; read-out: Kd^app ZMYM3) was 255 µM, the Kd (MIER3) was 34 µM and the Kd (MIER1) was 73 µM.

`O=C(CCCCCN1C(=O)c2cccc3cccc(c23)C1=O)NO` [scriptaid] was tested, and the Kd [1] was 0.35 µM, the Kd [2] was > 10 µM and the Kd [3] was 5.38 µM. For the same compound, the Kd [4] was > 10 µM, the Kd [5] was 4.84 µM and the Kd (MIER2) was 0.81 µM. The Kd (RERE) was 0.79 µM, the Kd (EHMT2) was 1.3 µM and the Kd (MIER3) was 0.32 µM.

`CN(C)Cc1c(C(=O)NCCOc2ccc(C(=O)NO)cc2)oc2ccccc12` [PCI-24781] was tested, and the “tubulin acetylation (in words)” value (acetylated tubulin) was “increased steady state acetylation of tubulin and histones”, the Kd [1] was > 10 µM and the Kd [2] was > 10 µM. For the same compound, the Kd [3] was > 10 µM, the Kd [4] was > 10 µM and the Kd [5] was > 10 µM. The Kd (NuRD complex; protein CHD4, NuRD complex, read-out: Kd^app CHD4) was 0.16 µM, the Kd (NuRD complex; protein GATAD2A, NuRD complex, read-out: Kd^app GATAD2A) was 0.06 µM and the Kd (NuRD complex; protein GATAD2B, NuRD complex, read-out: Kd^app GATAD2B) was 0.07 µM. It also gave a Kd (NuRD complex; protein MBD2, NuRD complex, read-out: Kd^app MBD2) of 0.17 µM, a Kd (NuRD complex; protein MBD3, NuRD complex, read-out: Kd^app MBD3) of 0.04 µM and a Kd (NuRD complex; protein MTA1, NuRD complex, read-out: Kd^app MTA1) of 0.05 µM. The Kd (NuRD complex; protein MTA2, NuRD complex, read-out: Kd^app MTA2) was 0.06 µM, the Kd (NuRD complex; protein MTA3, NuRD complex, read-out: Kd^app MTA3) was 0.05 µM and the Kd (RERE) was 0.21 µM. The Kd (CoREST complex; protein GSE1, CoREST complex, read-out: Kd^app GSE1) was 0.02 µM, the Kd (CoREST complex; protein HMG20A, CoREST complex, read-out: Kd^app HMG20A) was 0.02 µM and the Kd (CoREST complex; protein HMG20B, CoREST complex, read-out: Kd^app HMG20B) was 0.03 µM. For the same compound, the Kd (CoREST complex; protein PHF21A, CoREST complex, read-out: Kd^app PHF21A) was 0.05 µM, the Kd (CoREST complex; protein RCOR1, CoREST complex, read-out: Kd^app RCOR1) was 0.02 µM and the Kd (CoREST complex; protein RCOR2, CoREST complex, read-out: Kd^app RCOR2) was 0.02 µM. The Kd (CoREST complex; protein RCOR3, CoREST complex, read-out: Kd^app RCOR3) was 0.02 µM, the Kd (CoREST complex; protein ZMYM2, CoREST complex, read-out: Kd^app ZMYM2) was 0.02 µM and the Kd (CoREST complex; protein ZMYM3, CoREST complex, read-out: Kd^app ZMYM3) was 0.04 µM. The Kd (MIER3) was 0.02 µM, the “histone acetylation (in words)” value [6] was “increased steady state acetylation of tubulin and histones” and the Kd (MIER1) was 0.06 µM.
